# Legend:
# Test in all cases: Bliss excess, mean over the matrix (fraction); higher = more synergy
# [1] = test system: MDA-MB-415 (Breast Carcinoma)
# Outline: (§1)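 Bliss excess equals the observed combination effect minus the expected value EA + EB − EA·EB, where EA and EB are the effects of each agent alone. Combination Emax is the second-highest inhibition within the matrix. Inhibition was scaled from CellTiter-Glo 2.0 luminescence, with 0 set by vehicle wells and 1 by blank wells, after 72 hours of two-drug dosing of cells plated in 1536-well plates.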
# [2] = test system: T84 (Colorectal Carcinoma)
# Outline: as §1
# [3] = test system: HT-1080 (Other Solid Carcinomas)
# Outline: as §1
# [4] = test system: SAT (Head and Neck Carcinoma)
# Outline: as §1
# [5] = test system: SK-CO-1 (Colorectal Carcinoma)
# Outline: as §1
# [6] = test system: MONO-MAC-6 (Acute Myeloid Leukemia)
# Outline: as §1
# [7] = test system: KP-4 (Pancreatic Carcinoma)
# Outline: as §1
# [8] = test system: BHT-101 (Thyroid Gland Carcinoma)
# Outline: as §1
# [9] = test system: OVCAR-3 (Ovarian Carcinoma)
# Outline: as §1
# [10] = test system: NCI-H3118 (Head and Neck Carcinoma)
# Outline: as §1
# KALS-1 (Glioblastoma) = test system: KALS-1 (Glioblastoma)
# Outline: as §1
# [11] = test system: PA-TU-8988T (Pancreatic Carcinoma)
# Outline: as §1
# [12] = test system: NCI-H1341 (Small Cell Lung Carcinoma)
# Outline: as §1
# [13] = test system: SNU-423 (Hepatocellular Carcinoma)
# Outline: as §1
# [14] = test system: IA-LM (Non-Small Cell Lung Carcinoma)
# Outline: as §1
# WM35 (Melanoma) = test system: WM35 (Melanoma)
# Outline: as §1
# [15] = test system: DBTRG-05MG (Glioblastoma)
# Outline: as §1
# [16] = test system: NCI-H1876 (Small Cell Lung Carcinoma)
# Outline: as §1
# [17] = test system: PL4 (Pancreatic Carcinoma)
# Outline: as §1
# [18] = test system: C-33-A (Cervical Carcinoma)
# Outline: as §1
Compound,Bliss excess [1],Bliss excess [2],Bliss excess [3],Bliss excess [4],Bliss excess [5],Bliss excess [6],Bliss excess [7],Bliss excess [8],Bliss excess [9],Bliss excess [10],Bliss excess (KALS-1 (Glioblastoma)),Bliss excess [11],Bliss excess [12],Bliss excess [13],Bliss excess [14],Bliss excess (WM35 (Melanoma)),Bliss excess [15],Bliss excess [16],Bliss excess [17],Bliss excess [18]
"COc1cccc(OCCCN)c1-c1cc(Nc2cnc(C#N)cn2)n[nH]1 [Prexasertib] + C=CCn1c(=O)c2cnc(Nc3ccc(N4CCN(C)CC4)cc3)nc2n1-c1cccc(C(C)(C)O)n1 [AZD1775] (first compound max 1 µM, partner max 1 µM)",0.0729,0.144,0.0643,-0.0318,0.0582,0.168,0.0861,0.136,0.16,0.0483,-0.0436,0.227,0.13,0.128,0.0573,0.0668,-0.0008,0.0393,0.0483,0.0983
"COc1cccc(OCCCN)c1-c1cc(Nc2cnc(C#N)cn2)n[nH]1 [Prexasertib] + CCc1c2c(nc3ccc(O)cc13)-c1cc3c(c(=O)n1C2)COC(=O)[C@]3(O)CC [SN-38] (first compound max 1 µM, 7x7, partner max 0.3 µM)",0.106,0.0636,-0.0274,-0.007,-0.074,0.0092,0.0454,0.0077,0.141,0.0162,0.0399,0.167,-0.0174,0.0169,-0.0012,-0.0582,-0.0558,0.0067,-0.0027,0.0583
"COc1cccc(OCCCN)c1-c1cc(Nc2cnc(C#N)cn2)n[nH]1 [Prexasertib] + CN(C)CCCOc1ccc(-c2ccc3ncc4c(c3c2)n(C2CCOCC2)c(=O)n4C)cn1 [AZD0156] (first compound max 1 µM, 7x7, partner max 1 µM)",-0.0099,0.0016,0.0241,-0.0158,-0.0341,0.0031,0,0.0275,-0.0178,-0.036,-0.0669,0.0179,-0.032,-0.0711,-0.0364,0.0756,-0.0209,-0.044,-0.0387,-0.0158
"COc1cccc(OCCCN)c1-c1cc(Nc2cnc(C#N)cn2)n[nH]1 [Prexasertib] + C[C@@H]1COCCN1C2=NC(=NC(=C2)C3(CC3)[S@](=N)(=O)C)C4=C5C=CNC5=NC=C4 [AZD6738] (first compound max 1 µM, 7x7, partner max 10 µM)",-0.0055,-0.0026,-0.0089,-0.0238,-0.0469,0.0104,0.0072,0.0322,0.032,-0.032,-0.0557,0.0224,-0.0683,0,0.0439,-0.026,-0.0378,0.0095,-0.0024,0.0091
"COc1cccc(OCCCN)c1-c1cc(Nc2cnc(C#N)cn2)n[nH]1 [Prexasertib] + Cc1cc2ncnn2cc1Nc1ncc2c(n1)n(C1CCOCC1)c(=O)n2C [AZD7648] (first compound max 1 µM, 7x7, partner max 10 µM)",-0.0331,-0.0904,0.0234,-0.0294,-0.009,0.0406,0.0031,0.0399,-0.0213,-0.0501,-0.0363,0.0389,0.0194,-0.0244,0.0324,0.0429,-0.0105,-0.0713,0.0048,-0.0283
"COc1cccc(OCCCN)c1-c1cc(Nc2cnc(C#N)cn2)n[nH]1 [Prexasertib] + O=C(c1cc(Cc2n[nH]c(=O)c3ccccc23)ccc1F)N1CCN(C(=O)C2CC2)CC1 [Olaparib] (first compound max 1 µM, 7x7, partner max 10 µM)",0.0074,-0.0119,0.0164,-0.0473,-0.0442,-0.0195,0.0261,-0.0528,0.0265,-0.0501,-0.115,-0.0057,-0.0022,-0.0011,-0.0456,-0.0377,-0.025,-0.0338,0.0356,-0.0329
"COc1cc2c(cc1OCCCCCOc1cc3c(cc1OC)C(=O)N1C=C(C)C[C@H]1C=N3)N=C[C@@H]1CC(C)=CN1C2=O [SG3199] + O=C(c1cc(Cc2n[nH]c(=O)c3ccccc23)ccc1F)N1CCN(C(=O)C2CC2)CC1 [Olaparib] (first compound max 0.001 µM, 7x7, partner max 10 µM)",-0.0333,-0.0279,-0.02,-0.0203,-0.0444,-0.015,-0.0366,-0.009,-0.0205,-0.0471,-0.0155,0.0053,-0.0059,-0.0238,-0.0401,-0.0129,-0.0357,-0.0267,0.0304,-0.0476

# — the supplement of paper PMC11061612
